According to patent publication US9259002B2, “Herbicidal composition and method of use thereof” (Syngenta Crop Protection LLC, priority 2006, dated 2016):

Key:
Format in all cases: in vivo
[1] = system: white clover (Trifolium repens); assay: Glasshouse trial, post-emergence control of white clover
Experimental: A glasshouse trial was carried out. White clover seeds were sown into standard glasshouse potting mix (1:1 v/v Promix:Vero sand soil) contained in 10 cm square plastic pots. Treatments were replicated three times. […] When used, dithiopyr was applied at a rate of 70 g ai/ha or 140 g ai/ha. The adjuvant system was X-77 at 0.1% v/v in deionised water. 200 liters of herbicide/adjuvant system was used per hectare. General weed control was evaluated at 10 and 16 days after treatment (DAT). It is noted that all herbicides were applied at reduced field rates because herbicide effects are magnified in a glasshouse environment. Rates were chosen to give a 50 to 70% level of control with herbicides applied alone as this allows for detection of any synergistic effect when tank mixtures are used. […] The results were evaluated using the Colby formula. The expected result for (A+B) is (A+B)−(A×B/100) where A and B are the ‘observed’ results for A and B on their own. […] A glasshouse trial was carried out as described in Example 1, but using triclopyr (in the form of Turflon®) instead of dithiopyr. A glasshouse trial was carried out as described in Example 2, but using fluoroxypyr (in the form of Spotlight®) instead of triclopyr.

[2] = system: Medicago lupulina (black medic); assay: Glasshouse trial, post-emergence control of black medic; conditions: for Expected control (Colby), Plus Mesotrione at 100 g ai/ha: Colby formula; for Actual control, Plus Mesotrione at 100 g ai/ha: post-emergence
Experimental: A glasshouse trial was carried out. White clover seeds were sown into standard glasshouse potting mix (1:1 v/v Promix:Vero sand soil) contained in 10 cm square plastic pots. Treatments were replicated three times. Mesotrione (in the form Callisto® 480SE) was applied post-emergence to white clover (Trifolium repens) at either 50 g ai/ha or 100 g ai/ha with or without dithiopyr (in the form Dimension®). When used, dithiopyr was applied at a rate of 70 g ai/ha or 140 g ai/ha. The adjuvant system was X-77 at 0.1% v/v in deionised water. 200 liters of herbicide/adjuvant system was used per hectare. General weed control was evaluated at 10 and 16 days after treatment (DAT). It is noted that all herbicides were applied at reduced field rates because herbicide effects are magnified in a glasshouse environment. Rates were chosen to give a 50 to 70% level of control with herbicides applied alone as this allows for detection of any synergistic effect when tank mixtures are used. […] The results were evaluated using the Colby formula. The expected result for (A+B) is (A+B)−(A×B/100) where A and B are the ‘observed’ results for A and B on their own. […] A glasshouse trial was carried out as described in Example 1, but using triclopyr (in the form of Turflon®) instead of dithiopyr. A glasshouse trial was carried out as described in Example 2, but using Medicago lupulina (black medic) of white clover. A glasshouse trial was carried out as described in Example 4, but using fluoroxypyr instead of triclopyr.

[3] = system: Eleusine indica (goosegrass); assay: Glasshouse trial, post-emergence control of goosegrass; conditions: for Expected control (Colby), Plus Mesotrione at 200 g ai/ha: Colby formula; for Actual control, Plus Mesotrione at 200 g ai/ha: post-emergence
[4] = fluroxypyr 50 g ai/ha + mesotrione 100 g ai/ha
[5] = triclopyr 140 g ai/ha + mesotrione 100 g ai/ha
[6] = triclopyr 140 g ai/ha + mesotrione 200 g ai/ha
[7] = triclopyr 280 g ai/ha + mesotrione 200 g ai/ha

Compound: CSC(=O)c1c(C(F)F)nc(C(F)(F)F)c(C(=O)SC)c1CC(C)C [Dithiopyr, S,S′-dimethyl 2-difluoromethyl-4-isobutyl-6-trifluoromethylpyridine-=3,5-dicarbothioate]
- Actual control, Plus Mesotrione at 50 g ai/ha ([1]; dithiopyr 70 g ai/ha + mesotrione 50 g ai/ha tank mix, post-emergence, 10 DAT): 46.7
- Expected control (Colby), Plus Mesotrione at 50 g ai/ha ([1]; dithiopyr 70 g ai/ha + mesotrione 50 g ai/ha, 10 DAT, Colby formula): 37.4
- Actual control, Plus Mesotrione at 100 g ai/ha ([1]; dithiopyr 70 g ai/ha + mesotrione 100 g ai/ha tank mix, post-emergence, 10 DAT): 55.0
- Expected control (Colby), Plus Mesotrione at 100 g ai/ha ([1]; dithiopyr 70 g ai/ha + mesotrione 100 g ai/ha, 10 DAT, Colby formula): 52.6
- Actual control, Plus Mesotrione at 50 g ai/ha ([1]; dithiopyr 140 g ai/ha + mesotrione 50 g ai/ha tank mix, post-emergence, 10 DAT): 43.3
- Expected control (Colby), Plus Mesotrione at 50 g ai/ha ([1]; dithiopyr 140 g ai/ha + mesotrione 50 g ai/ha, 10 DAT, Colby formula): 44.2
- Actual control, Plus Mesotrione at 100 g ai/ha ([1]; dithiopyr 140 g ai/ha + mesotrione 100 g ai/ha tank mix, post-emergence, 10 DAT): 46.7
- Expected control (Colby), Plus Mesotrione at 100 g ai/ha ([1]; dithiopyr 140 g ai/ha + mesotrione 100 g ai/ha, 10 DAT, Colby formula): 57.8
- control of white clover on its own ([1]; dithiopyr alone, higher rate (140 g ai/ha), post-emergence): 18%
- control of white clover on its own ([1]; dithiopyr alone, lower rate (70 g ai/ha), post-emergence): 8%

Compound: Nc1c(Cl)c(F)nc(OCC(=O)O)c1Cl [Fluroxypyr, [(4-amino-3,5-dichloro-6-fluoro-2-pyridinyl)oxy]acetic acid]
- Expected control (Colby), Plus Mesotrione at 100 g ai/ha ([1]; fluroxypyr 50 g ai/ha + mesotrione 100 g ai/ha, Colby formula): 84
- Actual control, Plus Mesotrione at 100 g ai/ha ([1]; fluroxypyr 50 g ai/ha + mesotrione 100 g ai/ha, post-emergence): 91
- Expected control (Colby), Plus Mesotrione at 100 g ai/ha [2, 4]: 85
- Actual control, Plus Mesotrione at 100 g ai/ha [2, 4]: 90

Compound: O=C(O)COc1nc(Cl)c(Cl)cc1Cl [Triclopyr, [(3,5,6-trichloro-2-pyridyl)oxy]acetic acid]
- Expected control (Colby), Plus Mesotrione at 100 g ai/ha ([1]; triclopyr 140 g ai/ha + mesotrione 100 g ai/ha, Colby formula): 84
- Actual control, Plus Mesotrione at 100 g ai/ha ([1]; triclopyr 140 g ai/ha + mesotrione 100 g ai/ha, post-emergence): 99
- Expected control (Colby), Plus Mesotrione at 200 g ai/ha ([1]; triclopyr 140 g ai/ha + mesotrione 200 g ai/ha, Colby formula): 90
- Actual control, Plus Mesotrione at 200 g ai/ha ([1]; triclopyr 140 g ai/ha + mesotrione 200 g ai/ha, post-emergence): 98
- Expected control (Colby), Plus Mesotrione at 100 g ai/ha [2, 5]: 91
- Actual control, Plus Mesotrione at 100 g ai/ha [2, 5]: 97
- Expected control (Colby), Plus Mesotrione at 200 g ai/ha [3, 6]: 32
- Actual control, Plus Mesotrione at 200 g ai/ha [3, 6]: 42
- Expected control (Colby), Plus Mesotrione at 200 g ai/ha [3, 7]: 35
- Actual control, Plus Mesotrione at 200 g ai/ha [3, 7]: 50

Compound: CS(=O)(=O)c1ccc(C(=O)C2C(=O)CCCC2=O)c([N+](=O)[O-])c1 [mesotrione, 2-(2′-nitro-4′-methylsulphonylbenzoyl)-1,3-cyclohexanedione]
- control of white clover on its own ([1]; mesotrione alone, higher rate (100 g ai/ha), post-emergence): 48%
- control of white clover on its own ([1]; mesotrione alone, lower rate (50 g ai/ha), post-emergence): 32%
